# From US7745152B2, “Method for determining genotoxicity” (priority 2004, dated 2010)
# Several values for one entry are separate records, joined by “and”; a condition that tells them apart may be missing. Equal values may be shown once. Where a name gives a salt, the structure may show the parent alone. Read-outs that look alike come from different tables or passages of the source.
# Tests used:
# [1] = test system: C2C12 cells; conditions: mouse
# [2] = test system: C2C12 cells
# Experimental: (§1) Three independent replicates were generated for each drug and time point. Sample processing was carried out according to protocols described in the Affymetrix Expression Analysis Technical Manual. Briefly, total RNA was isolated from cells by the acid guanidinium thiocyanate-phenol-chloroform extraction method (Trizol®, Invitrogen, Carlsbad, Calif.). Twice purified poly(A+) RNA was isolated and reverse transcribed using a T7-promoter coupled oligo(dT) primer, followed by in vitro transcription. The labeled samples were applied to the Affymetrix Murine Genome MOE430 set and were hybridized overnight at 45° C./60 rpm, washed using a FS450 Fluidics station, and scanned on a GS3000 scanner. The resulting image files were analyzed using Affymetrix software (Microarray Analysis Suite version 5.0).
# (§2) To measure the effect of drug treatment on cellular gene expression, replicate data obtained from each drug and time point were compared with replicates for vehicle-matched controls using the Student t-test. The gene expression levels were Log transformed before applying the Student t-test. The fold change of the average expression level between the control and drug-treated cells was also calculated. […] A gene was considered expressed if the Affymetrix software determined that the gene was “present” in two out of the three replicates. This ensured that true expression changes were identified, and could be distinguished from background variability. Second, the calculated expression change for each of five tested drugs was at least 2 fold, and the calculated p-value for the expression change using the Student t-test was less than 0.01.
# [3] = test system: C2C12 cells; assay: C2C12 myogenic differentiation after MMS exposure with siRNA transfection; conditions: 75 μM MMS, 24 hours, then differentiation media, 72 hours
# [4] = test system: C2C12 cells; assay: Genomic assay: gene expression analysis (Affymetrix Murine Genome MOE430) in C2C12 cells induced to differentiate
# Experimental: as §1, §2
# [5] = test system: 4833427G06Rik mRNA; assay: RT-PCR assay of 4833427G06Rik (Dog1) mRNA in C2C12 cells; format: cell-based, mouse; conditions: C2C12, 24 hour drug, 18 hour differentiation; relative to vehicle
# [6] = test system: Dda3 mRNA; assay: RT-PCR assay of Dda3 mRNA in C2C12 cells; format: cell-based, mouse; conditions: C2C12, 24 hour drug, 18 hour differentiation; relative to vehicle
compound,measurement,setting,value
"COS(C)(=O)=O [Methanesulfonate methyl ester (MMS), Methanesulfonate methyl ester]",Lowest effective dose,[1],0.002 µg/mL
same,"Fold change in expression: Ephx1, Epoxide hydrolase 1 (microsomal xenobiotic hydrolase)",[2],2.10 fold
same,"Fold change in expression: Hgf, Hepatocyte growth factor (scatter factor)",[2],2.20 fold
same,C2C12 cell differentiation into myotubes after genotoxin exposure,[3],completely inhibited
same,"Fold change in expression: 0610013D04 Rik, RIKEN cDNA",[4],2.60 fold
same,"Fold change in expression: 1600013K19 Rik, RIKEN cDNA",[4],0.62 fold
same,"Fold change in expression: 2610005B21 Rik, RIKEN cDNA",[4],0.53 fold
same,"Fold change in expression: 2610019I03 RIK, RIKEN cDNA",[4],0.43 fold
same,"Fold change in expression: 2610509G12 Rik, RIKEN cDNA",[4],0.55 fold
same,"Fold change in expression: 2810417H13 Rik, RIKEN cDNA",[4],0.48 fold
same,"Fold change in expression: 4833427G06 Rik, RIKEN cDNA",[4],3.70 fold
same,"Fold change in expression: 6530401L14 Rik, RIKEN cDNA",[4],0.39 fold
same,"Fold change in expression: 9030617O03 Rik, RIKEN cDNA",[4],2.40 fold
same,"Fold change in expression: Anxa8, Annexin A8",[4],2.50 fold
same,"Fold change in expression: Asflb, ASF1 anti-silencing function 1 homolog B (Saccharomyces)",[4],0.47 fold
same,"Fold change in expression: Birc5, Baculoviral IAP repeat-containing 5",[4],0.51 fold
same,"Fold change in expression: Brca1, Breast cancer 1",[4],0.47 fold
same,"Fold change in expression: Calmbp1, Calmodulin binding protein 1",[4],0.30 fold
same,"Fold change in expression: Capn6, Calpain 6",[4],0.60 fold
same,"Fold change in expression: Ccna2, Cyclin A2",[4],0.46 fold
same,"Fold change in expression: Ccng1, Cyclin G1",[4],2.40 fold
same,"Fold change in expression: Cilp, Cartilage intermediate layer pro",[4],0.57 fold
same,"Fold change in expression: Cks2, CDC28 protein kinase regulatory subunit 2",[4],0.59 fold
same,"Fold change in expression: D4Ertd421e, DNA segment, Chr 4, ERATO Doi 421, expressed",[4],0.44 fold
same,"Fold change in expression: Dda3-pending, Differential display and activated by p53",[4],3.70 fold
same,"Fold change in expression: E2f7, E2F transcription factor 7",[4],0.55 fold
same,"Fold change in expression: E030024M05 Rik, RIKEN cDNA",[4],2.00 fold
same,"Fold change in expression: E130315B21 Rik, RIKEN cDNA",[4],0.64 fold
same,"Fold change in expression: Fbxo5, f-box only protein 31",[4],0.42 fold
same,"Fold change in expression: Foxm1, Forkhead box M1",[4],0.41 fold
same,"Fold change in expression: Gmnn, Geminin",[4],0.54 fold
same,"Fold change in expression: Gnpi, Glucosamine-6-phosphate deaminase",[4],1.60 fold
same,"Fold change in expression: Hmgb2, High mobility group box 2",[4],0.56 fold
same,"Fold change in expression: Hmgb3, High mobility group box 3",[4],0.45 fold
same,"Fold change in expression: Hmmr, Hyaluronan mediated motility receptor (RHAMM)",[4],0.36 fold
same,"Fold change in expression: Kifl1, Kinesin 11",[4],0.43 fold
same,"Fold change in expression: Lek1, Leucine, glutamic acid, lysine family 1 protein",[4],0.36 fold
same,"Fold change in expression: Ly6e, Lymphocyte antigen 6 complex, locus E",[4],1.80 fold
same,"Fold change in expression: M-phosph1, M-phase phosphoprotein",[4],0.27 fold
same,"Fold change in expression: MGC:32192, Mus musculus cDNA clone MGC: 32192 IMAGE: 5006129",[4],0.46 fold
same,"Fold change in expression: Mad2l1, MAD2 (mitotic arrest deficient, homolog)-like 1 (yeast)",[4],0.43 fold
same,"Fold change in expression: Mad3, Max dimerization protein 3",[4],0.52 fold
same,"Fold change in expression: Mcm3, Minichromosome maintenance deficient 3 (Saccharomyces)",[4],0.56 fold
same,"Fold change in expression: Mcmd4, Minichromosome maintenance deficient 4 homolog",[4],0.57 fold
same,"Fold change in expression: Mki67, Antigen identified by MAb Ki67",[4],0.31 fold
same,"Fold change in expression: Mmhead, Mus musculus 15 day embryo head cDNA clone",[4],3.00 fold
same,"Fold change in expression: Nos3, Nitric oxide synthase 3, endothelial cell",[4],1.90 fold
same,"Fold change in expression: Np95, Nuclear protein 95",[4],0.41 fold
same,"Fold change in expression: Nusap1, Nucleolar and spindle associated protein 1",[4],0.48 fold
same,"Fold change in expression: Osbp16, Oxysterol binding protein-like 6",[4],2.20 fold
same,"Fold change in expression: Pbk, PDZ binding kinase",[4],0.46 fold
same,"Fold change in expression: Pcna, Proliferating cell nuclear antigen",[4],0.60 fold
same,"Fold change in expression: Phex, Phosphate regulating neutral endopeptidase (X chromosome)",[4],2.20 fold
same,"Fold change in expression: Plf, Proliferin",[4],2.60 fold
same,"Fold change in expression: Pola1, DNA polymerase alpha 1, 180 kDa",[4],0.37 fold
same,"Fold change in expression: Prc1, Protein regulator of cytokinesis 1",[4],0.44 fold
same,"Fold change in expression: Prelp, Proline arginine-rich end leucine-rich repeat",[4],0.19 fold
same,"Fold change in expression: Prim1, DNA primase, p49 subunit",[4],0.51 fold
same,"Fold change in expression: Rad51ap1, RAD51-associated protein 1",[4],0.45 fold
same,"Fold change in expression: Rbl1, Retinoblastoma-like 1 (p107)",[4],0.59 fold
same,"Fold change in expression: Serpine1, Ser (or Cys) proteinase inhibitor, clade E, member 1",[4],0.58 fold
same,"Fold change in expression: Sesn2, Sestrin 2",[4],5.30 fold
same,"Fold change in expression: Shcbp1, Shc SH2-domain binding protein 1",[4],0.37 fold
same,"Fold change in expression: Slc19a2, Solute carrier family 19 (thiamine transporter), member 2",[4],2.70 fold and 2.30 fold
same,"Fold change in expression: Slc35a5, Solute carrier family 35, member A5",[4],2.60 fold
same,"Fold change in expression: Smc2l1, SMC2 structural maintenance of chromosomes 2-like 1",[4],0.49 fold
same,"Fold change in expression: Stk18, Serine/threonine kinase 18",[4],0.49 fold
same,"Fold change in expression: Tacc3, Transforming, acidic coiled-coil containing protein 3",[4],0.48 fold
same,"Fold change in expression: Tagln, Transgelin (smooth muscle 22 protein)",[4],0.47 fold
same,"Fold change in expression: Tk1, Thymidine kinase 1",[4],0.46 fold
same,"Fold change in expression: Top2a, Topoisomerase (DNA) II alpha",[4],0.37 fold
same,"Fold change in expression: Trp53inp1, Transformation related protein, 53 inducible nuclear protein 1",[4],2.90 fold
same,"Fold change in expression: Usp30, Ubiquitin specific protease 30",[4],3.70 fold
same,"Fold change in expression: Wig1, Wild-type p53-induced gene 1",[4],2.40 fold
CC[C@]1(O)C[C@@H]2CN(CCc3c([nH]c4ccccc34)[C@@](C(=O)OC)(c3cc4c(cc3OC)N(C)[C@H]3[C@@](O)(C(=O)OC)[C@H](OC(C)=O)[C@]5(CC)C=CCN6CC[C@]43[C@@H]65)C2)C1 [Vinblastine sulfate],relative expression of 4833427G06Rik mRNA,[5],much larger increase in expression of these indicator genes than did vincristine
same,relative expression of Dda3 mRNA,[6],much larger increase in expression of these indicator genes than did vincristine
same,Lowest effective dose,[1]; 24 h,0.0006 µg/mL
